Laboratory results as given in patent publication US20070128217A1 (priority 2003, published 2007).

B1: SC03-012 (scFv)
scFv: AMAQVQLVQSGAEVKKPGASVKVSCKASGYTFTSYGISWVRQAPGQGLEWMGWISAYNGNTNYAQKLQGRVTMTTDTSTSTAYMELSSLRSDDTAVYYCARMFRKSSFDSWGQGTLVTVSRGGGGSGGGGSGGGGSSELTQDPAVSVALGQTVRITCQGDSLRSYYASWYQQKPGQAPVLVIYGKNNRPSGIPDRFSGSSSGNTASLTITGAQAEDEADYYCNSRDSSGNHVVFGGGTKLTVLGAAA

Experiments:
[1] = test system: antibodies in sera from SARS patients (sera 1a, 1b, 2, 6, 37, 62, London, SARS-yellow, SARS-green); assay type: binding, human; set-up: Binding of serum 6 to linear peptides of protein X1 of SARS-CoV Urbani / Binding of serum 37 to linear peptides of protein X1 of SARS-CoV Urbani / Binding of serum 6 to looped/cyclic peptide (PEPSCAN-ELISA) / Binding of serum 37 to looped/cyclic peptide (PEPSCAN-ELISA) / Binding of serum 37 to looped/cyclic peptides of protein X1 of SARS-CoV Urbani / Binding of serum 6 to linear peptides of protein X2 / Binding of serum 37 to linear peptides of protein X2 / Binding of serum 37 to looped/cyclic peptides of protein X2 of SARS-CoV Urbani / Binding of serum 6 to linear peptides of protein M of SARS-CoV Urbani / Binding of serum 37 to linear peptides of protein M of SARS-CoV Urbani / Binding of serum 6 to looped/cyclic peptides of protein M of SARS-CoV Urbani / Binding of serum 37 to looped/cyclic peptides of protein M of SARS-CoV Urbani / Binding of serum 6 to linear peptides of protein X3 of SARS-CoV Urbani / Binding of serum 37 to linear peptides of protein X3 of SARS-CoV Urbani / Binding of serum 37 to looped/cyclic peptides of protein X3 of SARS-CoV Urbani / Binding of serum 6 to linear peptides of protein X4 of SARS-CoV Urbani / Binding of serum 37 to linear peptides of protein X4 of SARS-CoV Urbani / Binding of serum 37 to looped/cyclic peptides of protein X4 of SARS-CoV Urbani / Binding of serum 6 to linear peptides of protein X5 of SARS-CoV Urbani / Binding of serum 37 to linear peptides of protein X5 of SARS-CoV Urbani / Binding of serum 37 to looped/cyclic peptides of protein X5 of SARS-CoV Urbani / Binding of serum 6 to linear peptides of protein N of SARS-CoV Urbani / Binding of serum 37 to linear peptides of protein N of SARS-CoV Urbani / Binding of serum 6 to linear peptide (PEPSCAN-ELISA) / Binding of serum 1a to looped/cyclic peptides of protein N of SARS-CoV Urbani / Binding of serum 1b to looped/cyclic peptides of protein N of SARS-CoV Urbani / Binding of serum 2 to looped/cyclic peptides of protein N of SARS-CoV Urbani / Binding of serum 6 to looped/cyclic peptides of protein N of SARS-CoV Urbani / Binding of serum 37 to looped/cyclic peptides of protein N of SARS-CoV Urbani / Binding of serum 62 to looped/cyclic peptides of protein N of SARS-CoV Urbani / Binding of serum London to looped/cyclic peptides of protein N of SARS-CoV Urbani / Binding of serum SARS-green to looped/cyclic peptides of protein N of SARS-CoV Urbani: unit not given here
[2] = test system: control sera (pooled serum of ten healthy LUMC hospital workers; commercial negative donor pooled serum from the Dutch bloodbank); assay type: binding, human; set-up: Binding of Control serum LUMC to linear peptides / Binding of Control serum Blood-bank to linear peptides / Binding of Control serum LUMC to looped peptides / Binding of Control Serum Blood-Bank to Looped peptides / Binding of Control serum LUMC to linear peptides of the protein M of SARS-CoV Urbani / Binding of Control serum Blood-bank to linear peptides of the protein M of SARS-CoV Urbani / Binding of Control serum LUMC to looped peptides of the protein M of SARS-CoV Urbani / Binding of Control Serum Blood-Bank to Looped peptides of the protein M of SARS-CoV Urbani: unit not given here
[3] = test system: rabbit serum obtained by immunizing a rabbit with the SARS-CoV strain Frankfurt 1; assay type: binding; set-up: Binding of a rabbit serum to linear peptides / Binding of a rabbit serum to looped peptides / Rabbit serum linear peptides / Rabbit serum looped peptides / Binding of a rabbit serum to linear peptides of protein N of SARS-CoV Urbani (Rabbit serum linear peptides) / Binding of a rabbit serum to looped/cyclic peptides of protein N of SARS-CoV Urbani (Rabbit serum looped peptides): unit not given here
[4] = test system: recombinant human anti-SARS-CoV antibody 03-018; assay type: binding; set-up: Binding of antibody 03-018 to linear peptides of the N protein of SARS-CoV Urbani / Binding of antibody 03-018 to looped/cyclic peptides of the N protein of SARS-CoV Urbani: unit not given here
[5] = target: SARS-CoV preparation (Frankfurt 1 strain) (SARS-CoV strain Frankfurt 1)

Molecule	Binding of serum 1a to linear peptides of protein N of SARS-CoV Urbani [1]	Binding of serum 1a to looped/cyclic peptides of protein N of SARS-CoV Urbani [1]	Binding of serum 1b to linear peptides of protein N of SARS-CoV Urbani [1]	Binding of serum 1b to looped/cyclic peptides of protein N of SARS-CoV Urbani [1]	Binding of serum 2 to linear peptides of protein N of SARS-CoV Urbani [1]	Binding of serum 2 to looped/cyclic peptides of protein N of SARS-CoV Urbani [1]	Binding of serum 6 to linear peptides of protein N of SARS-CoV Urbani [1]	Binding of serum 6 to looped/cyclic peptides of protein N of SARS-CoV Urbani [1]	Binding of serum 37 to linear peptides of protein N of SARS-CoV Urbani [1]	Binding of serum 37 to looped/cyclic peptides of protein N of SARS-CoV Urbani [1]	Binding of serum 62 to linear peptides of protein N of SARS-CoV Urbani [1]	Binding of serum 62 to looped/cyclic peptides of protein N of SARS-CoV Urbani [1]	Binding of serum London to linear peptides of protein N of SARS-CoV Urbani [1]	Binding of serum London to looped/cyclic peptides of protein N of SARS-CoV Urbani [1]	Binding of serum SARS-green to linear peptides of protein N of SARS-CoV Urbani [1]	Binding of serum SARS-green to looped/cyclic peptides of protein N of SARS-CoV Urbani [1]	Binding of serum SARS-yellow to linear peptides of protein N of SARS-CoV Urbani [1]	Binding of serum SARS-yellow to looped/cyclic peptides of protein N of SARS-CoV Urbani [1]	Binding of Control Serum Blood-Bank to Looped peptides [2]	Binding of Control serum Blood-bank to linear peptides [2]	further results
TEGALNTPKDHIGTR	0.2	0.3	0.1	0.2	0.2	0.5	0.2	0.4	0.7	0.5	0.7	0.6	0.5	0.4	0.6	0.6	0.6	0.4	0.7	1.0	Binding of Control serum LUMC to linear peptides [2]: 0.9; Binding of Control serum LUMC to looped peptides [2]: 0.7; Binding of a rabbit serum to linear peptides of protein N of SARS-CoV Urbani (Rabbit serum linear peptides) [3]: 0.2; Binding of a rabbit serum to looped/cyclic peptides of protein N of SARS-CoV Urbani (Rabbit serum looped peptides) [3]: 0.0; Binding of antibody 03-018 to linear peptides of the N protein of SARS-CoV Urbani [4]: 0.2; Binding of antibody 03-018 to looped/cyclic peptides of the N protein of SARS-CoV Urbani [4]: 0.3
RRVRGGDGKMKELSP	0.3	0.3	0.2	0.1	0.4	0.3	0.2	0.2	0.7	0.4	0.8	0.3	0.6	0.4	0.4	0.1	0.8	0.3	0.6	0.9	Binding of Control serum LUMC to linear peptides [2]: 0.9; Binding of Control serum LUMC to looped peptides [2]: 0.6; Binding of a rabbit serum to linear peptides of protein N of SARS-CoV Urbani (Rabbit serum linear peptides) [3]: 0.2; Binding of a rabbit serum to looped/cyclic peptides of protein N of SARS-CoV Urbani (Rabbit serum looped peptides) [3]: 0.4; Binding of antibody 03-018 to linear peptides of the N protein of SARS-CoV Urbani [4]: 0.1; Binding of antibody 03-018 to looped/cyclic peptides of the N protein of SARS-CoV Urbani [4]: 0.2
B1	–	–	–	–	–	–	–	–	–	–	–	–	–	–	–	–	–	–	–	–	OD492nm [5]: 0.495 OD492nm
